≈ marks a conversion by molar mass, not a printed value. Where two headings read alike, the source gives them in different places.
Tests used:
Type in all cases: cell-based
[1] = tested on: M. pneumoniae; assay: microbe, parasite or virus in culture; conditions: Mycoplasmoides pneumoniae
[2] = tested on: M. hominis; conditions: M. hominis (13 isolates)
[3] = tested on: U. urealyticum; assay: MIC testing in 10B broth (colour change); conditions: U. urealyticum (10 isolates)
[4] = tested on: S. pneumoniae; assay: microbe, parasite or virus in culture; conditions: for MIC: Streptococcus pneumoniae

In the case of `CC[C@H]1OC(=O)[C@H](C)C(=O)[C@H](C)[C@@H](O[C@@H]2O[C@H](C)C[C@H](N(C)C)[C@H]2O)[C@](C)(OC)C[C@@H](C)C(=O)[C@H](C)[C@H]2N(CCCCn3cnc(-c4cccnc4)c3)C(=O)O[C@]12C` [TEL, telithromycin], the MIC50 [1] is reported as 0.25 ng/mL (≈ 0.000308 µM), the MIC90 [1] is reported as 1 ng/mL (≈ 0.00123 µM) and the “MIC Range” value [2] is reported as 0.125 to 0.5 µg/mL. For the same compound, the MIC50 ([2]; Metamycoplasma hominis, read-out: MIC50) was 0.25 µg/mL (≈ 0.308 µM), the MIC90 ([2]; Metamycoplasma hominis, read-out: MIC90) was 0.5 µg/mL (≈ 0.616 µM) and the “MIC Range” value [3] was 0.016 to 0.25 µg/mL. For the same compound, the MIC50 ([3]; Ureaplasma urealyticum) was 0.063 µg/mL (≈ 0.0776 µM), the MIC90 ([3]; Ureaplasma urealyticum) was 0.25 µg/mL (≈ 0.308 µM) and the “strains with resistant clones / strains tested” value ([4]; S. pneumoniae) was 5/8. For the same compound, the MIC ([4]; read-out: Initial MIC, strain 24 Macrolide-R [erm(B)], parent) was 0.25 µg/mL (≈ 0.308 µM), the MIC ([4]; read-out: Initial MIC, strain 1076 Macrolide-R [erm(B)&mef(A)], parent) was 0.5 µg/mL (≈ 0.616 µM) and the MIC ([4]; read-out: Initial MIC, strain 1077 Macrolide-S, parent) was 0.004 µg/mL (≈ 0.00493 µM). It also gave an MIC ([4]; read-out: Initial MIC, strain 1635 Macrolide-R [erm(A)], parent) of 0.004 µg/mL (≈ 0.00493 µM), an MIC ([4]; read-out: Initial MIC, strain 2686 Macrolide-R [L4 mutation], parent) of 0.06 µg/mL (≈ 0.0739 µM) and an MIC ([4]; read-out: Initial MIC, strain 3009 Macrolide-R [23SrRNA mutation], parent) of 0.016 µg/mL (≈ 0.0197 µM). It also gave an MIC ([4]; read-out: Initial MIC, strain 3665 Macrolide-R [mef(A)], parent) of 0.125 µg/mL (≈ 0.154 µM), an MIC ([4]; read-out: Initial MIC, strain 7127 Macrolide-S [S20N in L4, A105V in L22], parent) of 0.008 µg/mL (≈ 0.00985 µM) and an MIC ([4]; read-out: MIC of parents of resistant clones, S. pneumoniae (CEM-101: 7 strains)) of 0.004 to 0.5 µg/mL. For the same compound, the MIC ([4]; read-out: Parental MICs, S. pneumoniae, 8 strains with varying resistotypes) was 0.004 to 0.5 µg/mL (≈ 0.00493 to 0.616 µM), the MIC ([4]; read-out: Selected Resistance MIC, strain 24 Macrolide-R [erm(B)], after serial passages in the drug) was 32 µg/mL (≈ 39.4 µM) and the MIC ([4]; read-out: Selected Resistance MIC, strain 1076 Macrolide-R [erm(B)&mef(A)], after serial passages in the drug) was > 64 µg/mL. For the same compound, the MIC ([4]; read-out: Selected Resistance MIC, strain 1077 Macrolide-S, after serial passages in the drug) was 0.25 µg/mL (≈ 0.308 µM), the MIC ([4]; read-out: Selected Resistance MIC, strain 1635 Macrolide-R [erm(A)], after serial passages in the drug) was 0.008 µg/mL (≈ 0.00985 µM) and the MIC ([4]; read-out: Selected Resistance MIC, strain 2686 Macrolide-R [L4 mutation], after serial passages in the drug) was 0.5 µg/mL (≈ 0.616 µM). For the same compound, the MIC ([4]; read-out: Selected Resistance MIC, strain 3009 Macrolide-R [23SrRNA mutation], after serial passages in the drug) was 0.03 µg/mL (≈ 0.0369 µM), the MIC ([4]; read-out: Selected Resistance MIC, strain 3665 Macrolide-R [mef(A)], after serial passages in the drug) was 2 µg/mL (≈ 2.46 µM) and the MIC ([4]; read-out: Selected Resistance MIC, strain 7127 Macrolide-S [S20N in L4, A105V in L22], after serial passages in the drug) was 0.06 µg/mL (≈ 0.0739 µM). For the same compound, the “days until resistant clones (MIC increase)” value ([4]; daily passages, min. 14, max. 50) was 14 to 38 days, the “Retest MIC after 10 Antibiotic-free Subcultures” value ([4]; strain 24 Macrolide-R [erm(B)], clone selected with CEM-101) was 0.125 µg/mL and the “Retest MIC after 10 Antibiotic-free Subcultures” value ([4]; strain 24 Macrolide-R [erm(B)], clone selected with TEL) was 16 µg/mL. The “Retest MIC after 10 Antibiotic-free Subcultures” value ([4]; strain 1076 Macrolide-R [erm(B)&mef(A)], clone selected with CEM-101) was 32 µg/mL, the “Retest MIC after 10 Antibiotic-free Subcultures” value ([4]; strain 1076 Macrolide-R [erm(B)&mef(A)], clone selected with TEL) was >64 µg/mL and the “Retest MIC after 10 Antibiotic-free Subcultures” value ([4]; strain 1077 Macrolide-S, clone selected with AZI) was 0.125 µg/mL. The “Retest MIC after 10 Antibiotic-free Subcultures” value ([4]; strain 1077 Macrolide-S, clone selected with CEM-101) was 0.06a μg/ml, the “Retest MIC after 10 Antibiotic-free Subcultures” value ([4]; strain 1077 Macrolide-S, clone selected with CLN) was 0.06 µg/mL and the “Retest MIC after 10 Antibiotic-free Subcultures” value ([4]; strain 1077 Macrolide-S, clone selected with TEL) was 0.25 µg/mL. For the same compound, the “Retest MIC after 10 Antibiotic-free Subcultures” value ([4]; strain 1635 Macrolide-R [erm(A)], clone selected with AZI) was 0.004 µg/mL, the “Retest MIC after 10 Antibiotic-free Subcultures” value ([4]; strain 1635 Macrolide-R [erm(A)], clone selected with CEM-101) was 0.03 µg/mL and the “Retest MIC after 10 Antibiotic-free Subcultures” value ([4]; strain 1635 Macrolide-R [erm(A)], clone selected with CLN) was 0.008 µg/mL. For the same compound, the “Retest MIC after 10 Antibiotic-free Subcultures” value ([4]; strain 1635 Macrolide-R [erm(A)], clone selected with CLR) was 0.016 µg/mL, the “Retest MIC after 10 Antibiotic-free Subcultures” value ([4]; strain 2686 Macrolide-R [L4 mutation], clone selected with CEM-101) was 0.25 µg/mL and the “Retest MIC after 10 Antibiotic-free Subcultures” value ([4]; strain 2686 Macrolide-R [L4 mutation], clone selected with CLR) was 0.06 µg/mL. The “Retest MIC after 10 Antibiotic-free Subcultures” value ([4]; strain 2686 Macrolide-R [L4 mutation], clone selected with TEL) was 0.5 µg/mL, the “Retest MIC after 10 Antibiotic-free Subcultures” value ([4]; strain 3009 Macrolide-R [23SrRNA mutation], clone selected with CEM-101) was 0.06 µg/mL and the “Retest MIC after 10 Antibiotic-free Subcultures” value ([4]; strain 3009 Macrolide-R [23SrRNA mutation], clone selected with CLR) was 0.06 µg/mL. For the same compound, the “Retest MIC after 10 Antibiotic-free Subcultures” value ([4]; strain 3665 Macrolide-R [mef(A)], clone selected with CEM-101) was 0.25 µg/mL, the “Retest MIC after 10 Antibiotic-free Subcultures” value ([4]; strain 3665 Macrolide-R [mef(A)], clone selected with CLR) was 0.06 µg/mL and the “Retest MIC after 10 Antibiotic-free Subcultures” value ([4]; strain 3665 Macrolide-R [mef(A)], clone selected with TEL) was 0.25 µg/mL. The “Retest MIC after 10 Antibiotic-free Subcultures” value ([4]; strain 7127 Macrolide-S [S20N in L4, A105V in L22], clone selected with AZI) was 0.016 µg/mL, the “Retest MIC after 10 Antibiotic-free Subcultures” value ([4]; strain 7127 Macrolide-S [S20N in L4, A105V in L22], clone selected with CEM-101) was 0.06 µg/mL and the “Retest MIC after 10 Antibiotic-free Subcultures” value ([4]; strain 7127 Macrolide-S [S20N in L4, A105V in L22], clone selected with CLN) was 0.008 µg/mL. For the same compound, the “Retest MIC after 10 Antibiotic-free Subcultures” value ([4]; strain 7127 Macrolide-S [S20N in L4, A105V in L22], clone selected with CLR) was 0.008 µg/mL and the “Retest MIC after 10 Antibiotic-free Subcultures” value ([4]; strain 7127 Macrolide-S [S20N in L4, A105V in L22], clone selected with TEL) was 0.03 µg/mL.

— patent US9901592B2 (priority 2008, dated 2018)
